Where two headings read alike, the source gives them in different places.
Columns and labels:
NUDT9 = molecular target: T1, NUDT9 (Homo sapiens, UniProt Q9BW91); experiment: Nudix-type hydrolase activity towards a panel of substrates, NUDT9; type: biochemical; conditions: purified bacterially expressed NUDT9
T1 construct: made in house; host or cells: E. coli BL21 (DE3), pET-24d
T1 sequence (Q9BW91 47-350): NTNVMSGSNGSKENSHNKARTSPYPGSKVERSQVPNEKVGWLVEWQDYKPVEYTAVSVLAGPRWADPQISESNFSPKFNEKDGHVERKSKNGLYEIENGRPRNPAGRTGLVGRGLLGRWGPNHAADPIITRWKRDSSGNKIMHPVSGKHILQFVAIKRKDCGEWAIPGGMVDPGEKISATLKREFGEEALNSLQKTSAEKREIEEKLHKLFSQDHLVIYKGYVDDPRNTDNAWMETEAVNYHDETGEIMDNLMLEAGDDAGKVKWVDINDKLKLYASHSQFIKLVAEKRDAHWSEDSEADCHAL
Protocol: (§1) FIG. 2(B) is a characterization of the enzymatic activity of NUDT9 and NUDT9-H. Purified preparations of NUDT9 and NUDT9-H were screened for Nudix-type activity towards a panel of substrates as described in the methods section. Km and Vmax were calculated by non-linear regression analysis of Lineweaver-Burke plots.
(§2) BL21 (DE3) cells containing the respective expression plasmids were grown at 37° C. in LB broth on a shaker to an A600 of about 0.6 and induced by the addition of isopropyl-b-D-thiogalactopyranoside to a concentration of 1 mM. The cells were grown for an additional 4 h, harvested, washed by suspension in isotonic saline, centrifuged in pre-weighed centrifuge tubes, and the packed cells were stored at −80 ° C. […] In the case of NUDT9, enzyme was extracted in the freeze-thaw fraction and ammonium sulfate was added to 35% final concentration. The precipitate was discarded after centrifugation and ammonium sulfate was added to the supernatant to a final concentration of 50%. The precipitate was collected by centrifugation, dissolved, then chromatographed on a gel filtration column (Sephadex G-100). The active fractions containing the majority of the enzyme were pooled, concentrated by centrifugation in an Amicon Centriprep30, dialyzed, and chromatographed on DEAE-sepharose. The purified enzyme was concentrated from the pooled active fractions again using an Amicon Centriprep30. For the NUDT9 homology region of LTRPC2, the protein was extracted in the freeze-thaw fraction and ammonium sulfate was added to 35% final concentration and centrifuged. The precipitate was dissolved, dialyzed, and chromatographed on DEAE-sepharose. The purified enzyme was concentrated from the pooled active fractions by precipitation with 70% ammonium sulfate.
(§3) Enzyme Assay: Enzyme velocities were quantified by measuring the conversion of a phosphatase-insensitive substrate, ADPR, to the phosphatase-sensitive products, AMP and ribose-5-phosphate. The liberated inorganic orthophosphate was measured by the procedure of Ames and DubinENRfu^27. The standard incubation mixture ([…]) contained 50 mM Tris-Cl, pH 9.0, 16 mM MgCl2, 2 mM ADPR, 0.2-1 milliunitsof enzyme and 4 units of alkaline intestinal phosphatase. After 30 min at 37° C., the reaction was terminated by the addition of EDTA and inorganic orthophosphate was measured. A unit of enzyme hydrolyzes […] of substrate per min under these conditions. Note that 2 moles of phosphate are liberated per mole of ADPR hydrolyzed. Product determination: The standard assay mixture (minus alkaline intestinal phosphatase) was incubated for 30 min at 37° C. and terminated by the addition of […] of a mixture of four parts of Norit (20% packed volume) and one part of 7% HClO4 to remove adenine-containing nucleotides. After centrifugation, […] was adjusted to an alkaline pH and incubated for an additional 30 min at 37° C. with alkaline intestinal phosphatase to hydrolyze the ribose-5-phosphate formed.

LTRPC2 NUDT9-H = molecular target: T2, LTRPC2 NUDT9-H (Homo sapiens, UniProt O94759); experiment: Nudix-type hydrolase activity towards a panel of substrates, NUDT9-H region of LTRPC2; type: biochemical; conditions: purified bacterially expressed NUDT9-H of LTRPC2
T2 construct: an artificial start codon, amino acids 1197-1503, a stop codon; artificial initiating Met (artificial start codon) (N); made in house; host or cells: E. coli BL21 (DE3), pET-24d
Protocol: as §1, §2, §3

[1] = system: ADPR-dependent current (IADPR) in human U937 monocytes; experiment: Endogenous ADPR-dependent current (IADPR), whole-cell patch-clamp in U937 monocytes; type: cell-based; conditions: U937 cells; for EC50: read-out: apparent EC50 for IADPR
Protocol: FIG. 5 depicts the characterization of endogenous ADPR-dependent current(IADPR) in human U937 monocytes. […] In the right lane, the blot identifies LTRPC2 mRNA in native U937 cells. […] FIG. 5(B) depicts the temporal development of inward currents in U937 cells at −80 mV activated by different intracellular concentrations of ADPR in the presence of 10 mM BAPTA (n=4-11 each). FIG. 5(C) depicts the temporal development of inward currents in U937 cells at −80 mV activated by different intracellular concentrations of ADPR while [Ca^2+]i was buffered to 100 nM (n=5-7 each). FIG. 5(D) depicts the temporal development of inward currents in U937 cells at −80 mV activated by different intracellular concentrations of ADPR in the absence of exogenous buffers (n=5-9 each). […] Representative current record in response to a voltage ramp ranging from −100 to +100 mV over 50 ms. The record was obtained 100 s after whole-cell establishment from a cell perfused with 100 μM ADPR under unbuffered conditions.
For patch-clamp experiments, cells grown on coverslips were transferred to the recording chamber and kept in a standard modified Ringer's solution of the following composition (in mM): NaCl 145, KCl 2.8, CaCl2 1, MgCl2 2, glucose 10, Hepes-NaOH 10, pH 7.2. Intracellular pipette-filling solutions contained (in mM): Cs-glutamate 145, NaCl 8, MgCl2 1, Cs-BAPTA 10, pH 7.2 adjusted with CsOH. In some experiments, BAPTA was omitted from the pipette solution and 100 μM fura-2 was added for the purpose of fluorimetric monitoring of intracellular Ca^2+ concentration. […] The agonists were dissolved in the standard intracellular solution. Patch-clamp experiments were performed in the tight-seal whole-cell configuration at 21-25° C. High-resolution current recordings were acquired by a computer-based patch-clamp amplifier system (EPC-9, HEKA, Lambrecht, Germany). Patch pipettes had resistances between 2-4 MW after filling with the standard intracellular solution. Immediately following establishment of the 5 whole-cell configuration, voltage ramps of 50 ms duration spanning the voltage range of −100 to +100 mV were delivered from a holding potential of 0 mV at a rate of 0.5 Hz over a period of 200 to 400 seconds. All voltages were corrected for a liquid junction potential of 10 mV between external and internal solutions. Currents were filtered at 2.9 kHz and digitized at 100 μs intervals. Capacitive currents and series resistance were determined and corrected before each voltage ramp using the automatic capacitance compensation of the EPC-9. For analysis, the very first ramps prior to current activation were digitally filtered at 2 kHz, pooled and used for leak-subtraction of all subsequent current records. […]

LTRPC2 = molecular target: T3, LTRPC2 (Homo sapiens, UniProt O94759); experiment: ADPR-dependent gating of LTRPC2, whole-cell patch-clamp in tetracycline-induced HEK-293 cells expressing FLAG-LTRPC2; type: cell-based
T3 construct: beginning at amino acid 3 and extending to amino acid 1503; FLAG tag within the printed N-terminal leader […]; expressed in transfected cells
Protocol: 10^6 cells were analyzed for expression of a FLAG-reactive protein by anti-FLAG immunoprecipitation/anti-FLAG immunoblotting. […] The open symbols represent superimposed analyses of responses obtained from (i) wild-type HEK-293 cells (WT) perfused with standard internal solution in the absence of ADPR (n=3±sem); (ii) uninduced cells perfused with standard internal solution in the absence of ADPR (n=5±sem); (iii) uninduced HEK-293 cells perfused with standard solution containing 1 mM ADPR (n=3±sem); (iv) tet-induced HEK-293 cells perfused with standard internal solution without ADPR present (n=4±sem). […] The filled symbols indicate the time points at which individual high-resolution data traces were extracted for presentation as I/V curves in FIG. 3(F). […] Ramp currents were recorded in response of a standard voltage ramp stimulus (−100 mV to +100 mV in 50 ms).
FIG. 4 depicts the characterization of ADPR-dependent currents in LTRPC2-expressing in HEK-293 cells. […] HEK-293 cells expressing FLAG-LTRPC2 were perfused with defined ADPR concentrations ranging from […] to 1 mM, and currents were measured at −80 mV as in FIG. 3(D). The maximum current amplitude of individual cells was derived by analyzing the time course of current development (see e.g., FIGS. 3(C) and 3(D)) and fitting a Boltzmann curve to the rising phase of the developing cationic conductance. Peak current amplitudes were averaged and plotted versus ADPR concentration (n=5 to 12±sem). […] FIG. 4(B) depicts the kinetics of ADPR-dependent gating of LTRPC2. The temporal development of ADPR-gated currents was assessed as described in FIG. 4(A) by fitting a Boltzmann curve to the rising phase of the developing cationic conductance. The mid-point values of this analysis correspond to the time of half-maximal current activation, and are plotted as a function of ADPR concentration. […] HEK-293 cells expressing FLAG-LTRPC2 were perfused with 100 μM ADPR. 80 seconds into the experiment, and indicated by the bar, isotonic CaCl2 solution (120 mM CaCl2, 300 mOsm) was applied externally for 20 seconds.
Wild type and tetracycline-inducible HEK-293 FLAG-LTRPC2 expressing cells were cultured at 37° C./5% CO2 in DMEM supplemented with 10% FBS and 2 mM glutamine. The medium was supplemented with blasticidin (5 μg/ml; Invitrogen) and zeocin (0.4 mg/ml; Invitrogen). Cells were resuspended in media containing 1 μg/ml tetracycline (Invitrogen) 24 hours before experiments.
For patch-clamp experiments, cells grown on coverslips were transferred to the recording chamber and kept in a standard modified Ringer's solution of the following composition (in mM): NaCl 145, KCl 2.8, CaCl2 1, MgCl2 2, glucose 10, Hepes-NaOH 10, pH 7.2. Intracellular pipette-filling solutions contained (in mM): Cs-glutamate 145, NaCl 8, MgCl2 1, Cs-BAPTA 10, pH 7.2 adjusted with CsOH.

T2 sequence (O94759 1197-1503): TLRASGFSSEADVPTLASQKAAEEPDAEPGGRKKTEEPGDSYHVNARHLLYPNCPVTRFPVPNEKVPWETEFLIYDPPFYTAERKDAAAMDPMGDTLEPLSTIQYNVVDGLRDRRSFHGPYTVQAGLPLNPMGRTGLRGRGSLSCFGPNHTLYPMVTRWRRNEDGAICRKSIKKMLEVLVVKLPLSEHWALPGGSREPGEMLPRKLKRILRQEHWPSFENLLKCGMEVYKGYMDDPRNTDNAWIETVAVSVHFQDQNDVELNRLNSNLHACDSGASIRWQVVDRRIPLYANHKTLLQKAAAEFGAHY
T3 sequence (O94759 3-1503): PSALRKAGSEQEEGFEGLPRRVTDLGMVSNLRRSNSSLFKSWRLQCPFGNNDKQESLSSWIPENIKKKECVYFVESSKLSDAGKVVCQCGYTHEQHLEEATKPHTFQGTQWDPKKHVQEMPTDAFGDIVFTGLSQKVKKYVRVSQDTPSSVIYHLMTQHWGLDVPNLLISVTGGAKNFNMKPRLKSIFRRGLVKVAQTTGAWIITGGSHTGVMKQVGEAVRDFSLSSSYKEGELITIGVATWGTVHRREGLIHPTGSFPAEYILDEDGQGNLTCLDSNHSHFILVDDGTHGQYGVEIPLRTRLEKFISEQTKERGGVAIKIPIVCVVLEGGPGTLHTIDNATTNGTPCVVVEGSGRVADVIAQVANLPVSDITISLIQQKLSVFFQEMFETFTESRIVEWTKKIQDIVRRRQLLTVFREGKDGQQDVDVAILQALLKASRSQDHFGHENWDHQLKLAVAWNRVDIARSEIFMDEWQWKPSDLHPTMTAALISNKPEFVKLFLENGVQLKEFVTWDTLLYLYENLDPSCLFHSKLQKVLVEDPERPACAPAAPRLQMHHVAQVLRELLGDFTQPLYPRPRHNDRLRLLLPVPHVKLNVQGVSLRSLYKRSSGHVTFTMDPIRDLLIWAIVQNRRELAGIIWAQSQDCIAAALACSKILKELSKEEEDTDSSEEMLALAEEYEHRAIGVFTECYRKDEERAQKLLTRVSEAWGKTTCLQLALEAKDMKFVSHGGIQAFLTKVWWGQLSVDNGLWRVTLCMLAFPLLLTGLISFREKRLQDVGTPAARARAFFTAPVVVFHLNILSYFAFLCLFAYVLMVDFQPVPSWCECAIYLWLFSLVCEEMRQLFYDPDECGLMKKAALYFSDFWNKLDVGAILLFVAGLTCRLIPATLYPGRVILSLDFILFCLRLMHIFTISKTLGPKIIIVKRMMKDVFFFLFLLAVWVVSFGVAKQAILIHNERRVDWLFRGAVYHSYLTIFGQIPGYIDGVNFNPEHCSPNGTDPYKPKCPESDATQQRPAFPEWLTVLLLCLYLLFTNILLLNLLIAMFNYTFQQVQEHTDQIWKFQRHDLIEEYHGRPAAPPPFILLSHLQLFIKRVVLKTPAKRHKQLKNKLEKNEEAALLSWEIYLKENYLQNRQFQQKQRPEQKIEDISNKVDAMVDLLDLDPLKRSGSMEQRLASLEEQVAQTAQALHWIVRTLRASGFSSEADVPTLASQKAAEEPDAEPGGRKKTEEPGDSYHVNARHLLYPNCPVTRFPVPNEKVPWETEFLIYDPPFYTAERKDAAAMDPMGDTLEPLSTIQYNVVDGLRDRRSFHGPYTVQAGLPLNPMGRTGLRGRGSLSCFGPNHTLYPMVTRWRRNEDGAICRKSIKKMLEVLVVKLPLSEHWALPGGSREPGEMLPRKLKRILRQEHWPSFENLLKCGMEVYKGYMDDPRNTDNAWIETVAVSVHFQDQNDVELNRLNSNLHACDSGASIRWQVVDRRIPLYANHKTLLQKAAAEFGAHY

hydrolysis as substrate by NUDT9 (NUDT9) | hydrolysis as substrate by NUDT9-H (LTRPC2 NUDT9-H) | SMILES | also measured
not hydrolyzed | not hydrolyzed | Cc1cn([C@H]2C[C@H](O)[C@@H](COP(=O)(O)OP(=O)(O)OP(=O)(O)O)O2)c(=O)[nH]c1=O [deoxy-TTP] | 
not hydrolyzed | not hydrolyzed | NC(=O)C1=CN([C@@H]2O[C@H](COP(=O)(O)OP(=O)(O)OC[C@H]3O[C@@H](n4cnc5c(N)ncnc54)[C@H](O)[C@@H]3O)[C@@H](O)[C@H]2O)C=CC1 [NADH] | 
not hydrolyzed | not hydrolyzed | Nc1nc2c(ncn2[C@H]2C[C@H](O)[C@@H](COP(=O)(O)OP(=O)(O)OP(=O)(O)O)O2)c(=O)[nH]1 [deoxy-GTP] | 
not hydrolyzed | not hydrolyzed | Nc1ccn([C@H]2C[C@H](O)[C@@H](COP(=O)(O)OP(=O)(O)OP(=O)(O)O)O2)c(=O)n1 [deoxy-CTP] | 
 |  | Nc1ncnc2c1ncn2[C@@H]1O[C@H](COP(=O)(O)OP(=O)(O)OC[C@H]2OC(O)[C@H](O)[C@@H]2O)[C@@H](O)[C@H]1O (stereo partly drawn) [ADPR, Adenosine 5-diphospho (ADP)-ribose] | Hill coefficient ([1]; [Ca2+]i buffered to 100 nM): 8; EC50 ([1]; [Ca2+]i buffered to 100 nM): 130 µM; Hill coefficient ([1]; unbuffered): 8; EC50 ([1]; unbuffered (exogenous buffers omitted)): 40 µM; Hill coefficient of dose-response curve (LTRPC2; HEK-293 cells expressing FLAG-LTRPC2, currents at −80 mV): 9; EC50 (LTRPC2; HEK-293 cells expressing FLAG-LTRPC2, intracellular perfusion, peak currents at −80 mV, read-out: apparent EC50 of ADPR-dependent gating of LTRPC2): 90 µM; cells that generated currents above control levels (LTRPC2; cells perfused with 60 μM ADPR or higher (n=38)): 91%; intracellular concentration at which gating of the LTRPC2 channel begins (LTRPC2; intracellular ADPR): 60 to 100 µM; intracellular concentration at which saturation occurs (LTRPC2; intracellular ADPR): ~300 µM; membrane currents at −80 mV (LTRPC2; tet-induced HEK-293 cells expressing FLAG-LTRPC2 perfused with 100 μM ADPR): large inward currents
not hydrolyzed | not hydrolyzed | NC(=O)c1ccc[n+]([C@@H]2O[C@H](COP(=O)([O-])OP(=O)(O)OC[C@H]3O[C@@H](n4cnc5c(N)ncnc54)[C@H](O)[C@@H]3O)[C@@H](O)[C@H]2O)c1 [NAD^+, nicotinamide adenine dinucleotide] | 

SMILES | hydrolysis as substrate by NUDT9 (NUDT9) | hydrolysis as substrate by NUDT9-H (LTRPC2 NUDT9-H) | also measured
Nc1ncnc2c1ncn2[C@@H]1O[C@H](COP(=O)(O)OP(=O)(O)O[C@H]2O[C@H](CO)[C@@H](O)[C@H](O)[C@H]2O)[C@@H](O)[C@H]1O [ADP-lucose] | not hydrolyzed | not hydrolyzed | 
Nc1nc2c(ncn2[C@@H]2O[C@H](COP(=O)(O)OP(=O)(O)O[C@H]3O[C@H](CO)[C@@H](O)[C@H](O)[C@@H]3O)[C@@H](O)[C@H]2O)c(=O)[nH]1 [GDP-mannose] | not hydrolyzed | not hydrolyzed | 

From patent publication US20020182635A1, “Methods of screening for LTRPC2 modulators” (priority 2000, published 2002)
